Results from patent US11072614B2, “Polymorphs of sepiapterin and salts thereof” (PTC Therapeutics MP, Inc., priority 2016, dated 2021).

Tests used:
Assay type in all cases: physicochemical
[1] = Storage stability study of solid forms, form change by XRD (Example 11); conditions: 10% RH
Procedure: For X-ray powder diffraction analysis, a PANalytical Empyrean X-ray powder diffractometer was used. The parameters are as follows:
(§1) Form A and F samples were placed in chambers with silica gel to remove water (the relative humidity was measured to be ˜10% RH) at different temperatures. Form D samples were placed in chambers with water (relative humidity was estimated to be ˜100% RH) at different temperatures.
(§2) The HPLC purities and XRD patterns were obtained for each of Form A/F/D samples stored at various temperatures.

[2] = Physical form stability to grinding and sieving (XRD before and after)
Procedure: A sample of sepiapterin free base was obtained commercially. […] The sepiapterin sample contained particles with an average particle size over 100 μm. The XRD pattern was determined before and after grinding to reduce the particle size such that it passes through a 140 mesh screen. This polymorph of sepiapterin free base is referred to as Form A herein.

[3] = Storage stability study of solid forms, HPLC purity (Example 11); conditions: for % of Initial / Purity (area %): 10% RH
Procedure: as §1, §2

[4] = Storage stability of polymorphs, HPLC sepiapterin and impurity profile (Example 12); design: Impurity RRT 1.06 / Impurity RRT 1.08 / Impurity RRT 1.17 / Impurity RRT 1.21 / Impurity RRT 1.25 / Impurity RRT 0.62 / Impurity RRT 0.89 / Impurity RRT 0.95 / Impurity RRT 0.60: unit not given here
Procedure: Samples of sepiapterin free base polymorph Forms D, F, and A were stored at room temperature (RT), 35° C., and 50° C. The samples were analyzed by HPLC at 1 week and 4 week intervals. The HPLC parameters were as follows: [table]

[5] = 35° C./10% RH, 1 w, listed as Polymorph A
[6] = 35° C./10% RH, 4 w, listed as Polymorph A
[7] = 50° C./10% RH, 1 w, listed as Polymorph A
[8] = 50° C./10% RH, 4 w, listed as Polymorph A
[9] = RT/10% RH, 1 w, listed as Polymorph A
[10] = RT/10% RH, 4 w, listed as Polymorph A

## C[C@H](O)C(=O)C1=Nc2c(nc(N)[nH]c2=O)NC1 [Form A, sepiapterin]
[1]; 35° C., storage 1 week
  Form change: No
[1]; 35° C., storage 4 weeks
  Form change: No
[1]; 50° C., storage 1 week
  Form change: No
[1]; 50° C., storage 4 weeks
  Form change: No
[1]; RT, storage 1 week
  Form change: No
[1]; RT, storage 4 weeks
  Form change: No
[2]
  physical form stability to grinding and sieving: confirms the physical form stability
[3]; 35° C., storage 1 week
  % of Initial: 98.6%
  Purity (area %): 98.0 area %
[3]; 35° C., storage 4 weeks
  % of Initial: 96.7%
  Purity (area %): 96.1 area %
[3]; 50° C., storage 1 week
  % of Initial: 95.8%
  Purity (area %): 95.2 area %
[3]; 50° C., storage 4 weeks
  % of Initial: 89.1%
  Purity (area %): 88.5 area %
[3]; RT, storage 1 week
  % of Initial: 99.5%
  Purity (area %): 98.8 area %
[3]; RT, storage 4 weeks
  % of Initial: 98.8%
  Purity (area %): 98.2 area %
[3]; initial, before storage
  purity of initial samples by HPLC: 99.3 area %
[3]; storage at RT, 35° C., 50° C., 1 and 4 weeks
  stability as determined by HPLC (in words): significantly less stability
[4]; 35° C./10% RH, 1 w
  Impurity RRT 0.62: 0.24
  Impurity RRT 0.89: <0.05
  Impurity RRT 1.06: <0.05
  Impurity RRT 1.21: <0.05
  Impurity RRT 1.25: <0.05
[4]; [5]
  Impurity RRT 0.95: 1.36
  Impurity RRT 1.08: 0.28
  Impurity RRT 1.17: 0.16
  Sepiapterin RRT 1.00 (amount of sepiapterin): 97.97%
[4]; 35° C./10% RH, 4 w
  Impurity RRT 0.62: 1.03
  Impurity RRT 0.89: <0.05
  Impurity RRT 1.06: <0.05
  Impurity RRT 1.08: <0.05
  Impurity RRT 1.21: <0.05
  Impurity RRT 1.25: <0.05
[4]; [6]
  Impurity RRT 0.95: 2.70
  Impurity RRT 1.17: 0.16
  Sepiapterin RRT 1.00 (amount of sepiapterin): 96.06%
[4]; 50° C./10% RH, 1 w
  Impurity RRT 0.62: 0.68
  Impurity RRT 0.89: <0.05
  Impurity RRT 1.06: 0.45
  Impurity RRT 1.21: <0.05
  Impurity RRT 1.25: <0.05
[4]; [7]
  Impurity RRT 0.95: 3.48
  Impurity RRT 1.08: 0.08
  Impurity RRT 1.17: 0.16
  Sepiapterin RRT 1.00 (amount of sepiapterin): 95.15%
[4]; 50° C./10% RH, 4 w
  Impurity RRT 0.62: 2.59
  Impurity RRT 0.89: 0.06
  Impurity RRT 1.06: <0.05
  Impurity RRT 1.17: 0.17
  Impurity RRT 1.21: 0.06
  Impurity RRT 1.25: 0.11
[4]; [8]
  Impurity RRT 0.95: 7.67
  Impurity RRT 1.08: 0.85
  Sepiapterin RRT 1.00 (amount of sepiapterin): 88.49%
[4]; 50° C./10% RH, 4 w, listed as polymorph A
  Sepiapterin RRT 1.00 (amount of sepiapterin): 88.49%
[4]; Initial
  Impurity RRT 0.89: <0.05
  Impurity RRT 1.06: <0.05
  Impurity RRT 1.08: <0.05
  Impurity RRT 1.17: 0.17
  Impurity RRT 1.21: <0.05
  Impurity RRT 1.25: <0.05
[4]; Initial, listed as Polymorph A
  Impurity RRT 0.62: 0.08
  Impurity RRT 0.95: 0.42
  Sepiapterin RRT 1.00 (amount of sepiapterin): 99.33%
[4]; Initial, listed as polymorph A
  Sepiapterin RRT 1.00 (amount of sepiapterin): 99.33%
[4]; RT/10% RH, 1 w
  Impurity RRT 0.62: 0.16
  Impurity RRT 0.89: <0.05
  Impurity RRT 1.06: <0.05
  Impurity RRT 1.17: 0.16
  Impurity RRT 1.21: <0.05
  Impurity RRT 1.25: <0.05
[4]; [9]
  Impurity RRT 0.95: 0.77
  Impurity RRT 1.08: 0.11
  Sepiapterin RRT 1.00 (amount of sepiapterin): 98.80%
[4]; RT/10% RH, 4 w
  Impurity RRT 0.62: 0.37
  Impurity RRT 0.89: <0.05
  Impurity RRT 1.06: <0.05
  Impurity RRT 1.08: <0.05
  Impurity RRT 1.17: 0.16
  Impurity RRT 1.21: <0.05
  Impurity RRT 1.25: <0.05
[4]; [10]
  Impurity RRT 0.95: 1.29
  Sepiapterin RRT 1.00 (amount of sepiapterin): 98.18%
